Results as given in US20220079915A1, “IMMUNOSUPPRESSIVE PHARMACEUTICAL COMPOSITION AND APPLICATION THEREOF” (Shanghai Archeus Biotech Co., Ltd., priority 2018, published 2022).

How the values were obtained:
myocardial contraction = conditions: cited from earlier work; for myocardial contraction activity, equivalent to % of forskolin: source [2]; for myocardial contraction activity EC50: sources [7], [8]
[1] = cited from earlier work; for antihypertensive effect, equivalent to % of forskolin: source [2]
cAMP = conditions: source [1]; cited from earlier work
[2] = tested on: systolic blood pressure (SBP), diastolic blood pressure (DBP), heart rate (HR); conditions: source [3]; cited from earlier work
[3] = of 6-[3-(dimethylamino)propionyl]forskolin; sources [3], [4]; cited from earlier work
[4] = tested on: guinea pig myocardial contraction; conditions: source [5]; cited from earlier work
IL-17A = IL-17A secretion of mouse spleen Naïve CD4+ T cells induced to differentiate to Th17 cells by cytokines, ELISA; assay type: cell-based
Experimental: 1) Pre-coated the 96-well plate with 2 μg/mL anti-mouse CD3e and incubated overnight at 4 degrees Celsius: 2) Separated fresh spleens from adult C57BL/6 female mice (8-12 weeks old), ground and filtered through a […] nylon cell strainer to obtain a single cell suspension in pre-cooled DPBS; 3) Washed the spleen cells again with DPBS, and resuspended in RoboSep™ buffer at a density of 1×10^8/mL; 4) Separated primary CD4+ T cells with mouse primary CD4+ T cell isolation kit as required by the kit; 5) Resuspended the isolated CD4+ T cells in complete medium (RPMI 1640 medium+10% inactivated FBS+1% double antibiotics) at a density of 1×10^6/mL; 6) Washed the 96-well plate pre-coated with anti-mouse CD3e twice with DPBS, added 50 μL of cytokine cocktail, the composition and final concentration of which are shown in Table 6 below, and then added 50 μL of compound solution (the final concentration of DMSO was 0.1%). Added 100 μL of cell suspension to each well to allow the final cell number per well to be 1×10^5/100 μL; [table] 7) Cultured the cells for 7 days under the above conditions. The culture conditions were 37 degrees Celsius, 5% CO2 concentration; 8) After 7 days, added 1× stimulation cocktail (eBioscience 500X) to the culture medium for 4 hours, and then collected cell culture supernatant for detection with IL-17A enzyme-linked immunoassay kit; 9) Completed the detection of supernatant IL-17A concentration with mouse IL-17 DuoSet ELISA kit; 10) Read the OD450 nm absorbance value with a microplate reader, and generated the standard curve by using the 4-parameter logistic fitting (4-PL) method. 1) Diluted the capture antibody (provided in the kit) to a working concentration in PBS without carrier protein, that is, a 96-well plate can be coated with 100 microliters per well. Sealed and incubated the plate overnight at room temperature; 2) Aspirated the coating buffer of the well plate, and eluted with 400 microliters of eluent (provided in the kit) for three times, aspirating as much liquid as possible each time; 3) Added 300 microliters of diluent (provided in the kit) to each well, and equilibrated for 1 hour at room temperature; 4) Eluted the well plate as in the above step 2) to be ready for the addition of sample; ) Added 100 microliters of sample or standard to each well containing the added diluent, and sealed and incubated the well plate for 2 hours at room temperature; 6) Eluted the well plate as in the above step 2); 7) Added 100 microliters of detector antibody (provided in the kit) to each well, and sealed and incubated the well plate for 2 hours at room temperature. 8) Eluted the well plate as in the above step 2); 9) Added 100 microliters of Streptavidin-HRP working solution (provided in the kit) to each well, and sealed and incubated the well plate in dark for 20 minutes at room temperature. 10) Eluted the well plate as in the above step 2); 11) Added 100 microliters of reaction substrate solution (provided in the kit) to each well, and incubated at room temperature for 20 minutes, protected from light: 12) Added 50 microliters of stop solution (provided in the kit) to each well, and tapped the well plate to ensure that the liquid is evenly mixed; 13) Detected the optical density value of each well at […]. The values could be corrected by deducting the values at 540 nm or 570 nm.

TNF-α = experiment: LPS-induced TNF-α secretion in THP-1 cells, ELISA of culture supernatant; assay type: cell-based, human; conditions: for TNF-α treatment value, B: relative to control
Experimental: 1) Recoveried and expanded THP-1 cells in a T75 culture flask. The growth medium was 10 milliliters of 10% fetal bovine serun/RPMI1640 (already containing 2 mM glutamine)/1% double antibiotics in each flask. Observed the cells under an invert microscope, and, when the cells were in the logarithmic growth phase, started the following drug treatment experiments; 2) Cultured 2*10e5/mL THP-1 cells in a 96-well culture plate with 100 microliters of growth medium (10% fetal bovine serum/RPMI640/1% double antibiotics) per well, and added 100 ng/ml PMA to incubate for 24 hour; 3) Eluted the non-adherent cells once with 300 microliters of fresh growth medium of 10% fetal bovine serum/RPMI1640/1% double antibiotics; 4) Added 200 microliters of growth medium of 10% fetal bovine serum/RPMI1640/1% double antibiotics, with/without test compound, to pre-incubate the cells at 37° C. for 2 hours; 5) Then added 100 ng/mL lipopolysaccharide (LPS) and incubated at 37° C. for 4 hours: 6) Collected 50 microliters of cell culture supernatant for the detection of the levels of related cytokines by enzyme-linked immunoassay, or stored it in a refrigerator at minus 80 degrees Celsius for future detection; 1) Prepared 1× elution buffer for enzyme-linked immunoassay. Prepared it with ultrapure water: 10× elution buffer mother solution=9:1 in volume ratio for use; 2) Prepared the antibody cocktail for enzyme-linked immunoassay. Prepared it with the antibody diluent (provided by Ab221825):antibody 1:antibody 2=18:1:1 in volume ratio for use. Antibody 1 was a TNF-α capture antibody and Antibody 2 was a TNF-α detector antibody. They were all supplied by kit Ab221825; 3) Prepared a series of concentration gradient samples of TNF-α standard with ultrapure water for the plotting of reaction standard curve and determining the linear range of detection signal; 4) Added 50 microliters of cell culture supernatant/standard and 50 microliters of the above antibody cocktail to a 96-well plate used for enzymatic reaction, sealed it with a film, placed it on a horizontal shaker, and incubated at 400 rpm for 1 hour at room temperature to allow the antibody-antigen complex was fully bound and coupled at the bottom of the well plate; 5) Discarded the supernatant, eluted with 350 microliters of 1× elution buffer/well for 3 times. In the last elution, put the well plate upside down on an absorbent paper and sucked and washed it thoroughly; 6) Added 100 microliters of TMB substrate solution (supplied by Ab221825) to each well, placed them on a horizontal shaker and incubated in the dark at room temperature for 5 minutes at a speed of 400 rpm; 7) Added 100 microliters of reaction stop solution (provided by Ab221825), placed on a horizontal shaker and mix at 400 rpm for 1 minute; 8) Detected the absorbance at 450 nm with a microplate reader.

[5] = cited from earlier work
[6] = target: adenylate cyclase in rat cerebral cortex; conditions: source [8]; read-out: activation of adenylate cyclase in rat cerebral cortex EC50; cited from earlier work
psoriasis = conditions: 4 patients with psoriasis; PCT/US84/00291; cited from earlier work

C=C[C@@]1(C)CC(=O)C2(O)[C@@]3(C)C(O)CCC(C)(C)C3[C@H](OC(=O)CCCN)C(OC(C)=O)[C@@]2(C)O1 (stereo partly shown) [6-(4-aminobutyryl)forskolin]
myocardial contraction activity (myocardial contraction; source [1]): 0.9 dp/dt
antihypertensive effect ([1]; source [1]): 0.7
cAMP activation (cAMP): 214.9%

C=C[C@@]1(C)CC(=O)C2(O)[C@@]3(C)C(O)CCC(C)(C)C3[C@H](OC(=O)CCN(C)C)C(OC(C)=O)[C@@]2(C)O1 (stereo partly shown) [6-[3-(dimethylamino)propionyl]forskolin]
myocardial contraction activity, equivalent to % of forskolin (myocardial contraction): 120 % of forskolin
antihypertensive effect, equivalent to % of forskolin [1]: 80 % of forskolin

C=C[C@@]1(C)CC(=O)C2(O)[C@@]3(C)[C@@H](O)CCC(C)(C)[C@@H]3[C@H](OC(=O)CCNC)[C@H](OC(C)=O)[C@@]2(C)C1 (stereo partly shown) [6-[3-(methylamino)propionyl]forskolin]
beagle dog's systolic blood pressure (SBP), diastolic blood pressure (DBP), heart rate (HR) and other effects [2]: equivalent to 6-[3- (dimethylamino)- propionyl]forskolin
metabolite status [3]: in vivo active metabolite

C=C[C@@]1(C)CC(=O)C2(O)[C@@]3(C)[C@@H](O)CCC(C)(C)[C@@H]3[C@H](OC(=O)CCN)[C@H](OC(C)=O)[C@@]2(C)C1 (stereo partly shown) [6-[3-aminopropionyl]forskolin]
metabolite status [3]: in vivo active metabolite of 6-[3- (dimethylamino)- propionyl]forskolin

C=C[C@@]1(C)CC(=O)C2(O)[C@@]3(C)C(O)CCC(C)(C)C3[C@H](OC(=O)CCCN(C)C)C(OC(C)=O)[C@@]2(C)O1 (stereo partly shown) [6-[4-(dimethylamino)butyryl]forskolin]
myocardial contraction activity, equivalent to % of forskolin (myocardial contraction): 100 % of forskolin
antihypertensive effect, equivalent to % of forskolin [1]: 90 % of forskolin

C=CC1(C)CC(=O)C2(O)C(C)(O1)C(O)C(OC(=O)CN1CCCCC1)C1C(C)(C)CCC(O)C12C (stereo not shown) [6-[(piperidino)acetyl]-7-desacetyl forskolin]
guinea pig myocardial contraction activity EC50 [4]: guinea pig myocardial contraction activity EC50: 1.8 μg/mL

C=C[C@@]1(C)CC(=O)[C@]2(O)C3(C)C(C(O)C(OC(=O)COC=O)[C@@]2(C)O1)C(C)(C)CC[C@@H]3O (stereo partly shown) [7-(2-formyloxy)forskolin]
myocardial contraction activity EC50 (myocardial contraction): myocardial contraction activity EC50 = 0.002 μg/mL

CCCCC[C@H](O)/C=C/[C@H]1[C@H](O)CC(=O)[C@@H]1C/C=C\CCCC(=O)O [PGE2, prostaglandin E2, reference compound]
IL-17A, % of the basic level (IL-17A; 3 μM PGE2 alone, FIG. 10): 17%
IL-17A treatment value, B (IL-17A; Table 7, relative to control, 3 μM PGE2): 17%
effect on secretion and expression of TNF-α (TNF-α; 10 μM PGE2 alone, FIG. 4): inhibited the secretion and expression of TNF-α to a certain extent
TNF-α treatment value, B (TNF-α; Table 3, 10 μM PGE2): 46%

C=C[C@@]1(C)CC(=O)[C@]2(O)[C@@]3(C)[C@@H](O)CCC(C)(C)[C@@H]3[C@H](O)[C@H](OC(C)=O)[C@@]2(C)O1 [forskolin]
myocardial contraction activity EC50 (myocardial contraction): 0.02 µg/mL
water solubility [5]: poor
EC50 [6]: 8 µM
drug activity in reducing TNF-α (TNF-α; FIG. 2, compared with 6-[3-(dimethylamino)propionyl]forskolin hydrochloride): slightly lower than the aforementioned compound
effect on pathological symptoms of psoriasis (psoriasis): relieved the pathological symptoms

C[C@]12CCC(=O)C=C1CC[C@@H]1[C@@H]2[C@@H](O)C[C@@]2(C)[C@H]1CC[C@]2(O)C(=O)CO [hydrocortisone, reference compound]
reduction of the IL-17A level, % of the basic level (IL-17A; 3 μM hydrocortisone alone, FIG. 12): 38%
IL17-A treatment value, B (IL-17A; Table 8, relative to control, 3 μM hydrocortisone): 62%
effect on TNF-α (TNF-α; 30 μM hydrocortisone alone, pre-incubated 2 hours before LPS, FIG. 6): further stimulated the increase of inflammatory factor TNF-α
TNF-α treatment value, B (TNF-α; Table 4, 30 μM hydrocortisone): 200%
